# Key:
# rats [1] = system: rats; set-up: method as in T. Pfister, unpublished data; conditions: at least 104 wk at 3, 7, or 15 mg/kg body weight/d, ref T. Pfister, unpublished data; cited from earlier work
# [2] = system: mice with large cell lymphoma; set-up: method as in T. Pfister, unpublished data; conditions: ref T. Pfister, unpublished data; cited from earlier work
# rat = conditions: in vivo, po; cited from earlier work
# [3] = set-up: method as in T. Pfister, unpublished data; conditions: ref T. Pfister, unpublished data, cited from earlier work
# [4] = OECD test guideline 301F ready biodegradability test
# [5] = River sediment/water fate test (US FDA Guideline 3.11) with 14C-MPM; conditions: all systems and dosings
# Experimental: A river sediment/water fate test with two different ^14C-MPMs (one carboxyl-^14C-labelled, the other morpholine-^14C-labelled) was commissioned in 1994 by Syntex according to US FDA Guideline 3.11 in compliance with GLP (Yan 1995). Both carboxyl-^14C-labelled and morpholine-^14C-labelled MPM were tested separately for biodegradability in river water and sediment at dosing concentrations of 1 and 5 mg MPM/L, in parallel test set-ups in the dark at 21±1 °C over 64 days. Air was drawn in flow-through systems first through a 2 N KOH vessel to remove natural CO2, then through the test vessel and subsequently through two sequential 2 N KOH traps for ^14CO2 capture. Samples from the latter traps were taken for duplicate ^14CO2 analysis by LSC on days 1, 2, 3, 7, 14, 21, 28, 35, 49 and 64. Test medium samples for HPLC analysis were taken on days 0.01 (15 min after dosing), 1, 3, 7, 14, 21, 35, 49 and 64. Sediment samples were taken at the end for combustion and ^14CO2 analysis.
# rats [6] = conditions: cited from earlier work
# [7] = set-up: method as in Lee et al. 1990; Shipkova et al. 2005; conditions: in the liver and intestine; ref Lee et al. 1990; Shipkova et al. 2005; cited from earlier work
# rabbits = system: rabbits; set-up: method as in T. Pfister, unpublished data; conditions: oral, ref T. Pfister, unpublished data; cited from earlier work
# humans = assay: Derivation of acceptable daily exposure (ADE); set-up: species or system human
# Experimental: Similarly, potential risk for humans from secondary poisoning is assessed by using the acceptable daily exposure (ADE) value for MPA (T. Pfister, unpublished data), which considers toxicological data as well as human experience and covers all routes of uptake, including sensitive subpopulations, over 365 d/annum, with the combined worst‐case uptake through drinking water and fish. No removal of MPA in drinking water production is assumed, but a default intake of 2 L water and 115 g fish/person and day is assumed (European Commission 2011; Murray‐Smith et al. 2012). This combined uptake is then compared with the ADE.
# The ADE was derived based on the available nonclinical and clinical data, with the critical effects identified as 1) immunosuppression and secondary effects thereof and 2) teratogenicity; in addition, the relevance of positive results in genotoxicity tests was assessed (T. Pfister, unpublished data). Based on the NOAEL of 2 mg/kg body weight/d in the 12‐mo oral toxicity study in the rat, an ADE was derived by multiplying this NOAEL by a default body weight of 60 kg for humans and dividing by adjustment factors, namely, 6.2 for extrapolation from rats to humans, 10 for variability between individuals, 1 for study duration of 1 yr for rodents, 5 for severity of systemic toxicity (hematopoiesis, immunotoxicity), and 3 for use of an established NOAEL instead of an NOEL; this derivation results in a first ADE of 0.1 mg MPM/60‐kg person/d. […] The weak clastogenic potential observed at higher doses was considered to be irrelevant at these exposure levels. Because the first ADE was lower than, and therefore also protective of, the second, 0.1 mg MPM/60‐kg person/d was selected as the ADE. Stoichiometrically, this ADE for MPM corresponds to 0.0739 mg MPA/d, which was rounded to 0.075 mg or 75 µg MPA/d. The MTDI for an otter was derived by normalizing the ADE for a 60‐kg human to the otter with a default body mass of 10 kg, resulting in an MTDI of 0.0125 mg or 12.5 µg MPA/10‐kg otter/d.
# rats [8] = system: rats; set-up: method as in T. Pfister, unpublished data; conditions: oral, ref T. Pfister, unpublished data; cited from earlier work
# mice = system: mice; set-up: method as in T. Pfister, unpublished data; conditions: oral, 104 wk at 25, 75, or 180 mg/kg body weight/d, ref T. Pfister, unpublished data; cited from earlier work
# [9] = system: lymphocyte and erythrocyte systems; set-up: method as in T. Pfister, unpublished data; conditions: ref T. Pfister, unpublished data; cited from earlier work
# [10] = OECD test guideline 314B activated sludge biodegradation simulation test
# Description: Mineralization comprises evolved CO2 (detected in the traps) as well as CO2 dissolved in the sludge. The latter was highest at day 2 and decreased afterward, whereas the amount of evolved CO2 increased continuously until the end of the study. […] At no time point was a noteworthy amount of radioactivity (>2% iRR throughout the test period) detected in the liquor after extraction. Radioactivity in the solids extract was highest at day 0 (5.5% iRR) and decreased afterward to 0.3% iRR after 28 d.
# Based on this k biodeg and physicochemical properties for MPA, SimpleTreat 4.0 (Struijs 2015) calculated a removal of 12% in STPs, mostly through biodegradation (0.27% in the primary settler and 11.5% in the aeration tank), with a small fraction of 0.13% adsorbed to sludge, in agreement with the OECD test guideline106 (Organisation for Economic Co‐operation and Development 2000) adsorption results mentioned in the previous paragraph (V. Halász‐Laky, unpublished data). […] A high degradation rate is supported by data from Franquet‐Griell et al. (2017b), who measured STP influents and effluents and compared solid phase extraction and macroporous ceramic passive samplers in Spain. […]
# Cyprinus carpio = system: Cyprinus carpio; set-up: method as in FASS 2018; conditions: OECD 203; ref FASS 2018; cited from earlier work
# [11] = set-up: method as in FASS 2018; conditions: OECD 209; ref FASS 2018; cited from earlier work
# D. magna = system: D. magna; set-up: method as in FASS 2018; conditions: OECD 202; ref FASS 2018; cited from earlier work
smiles,measurement,setting,value
"COc1c(C)c2c(c(O)c1C/C=C(\C)CCC(=O)OCCN1CCOCC1)C(=O)OC2 [MPM, mycophenolate mofetil]",carcinogenicity,rats [1],not carcinogenic
same,survival times,[2],prolonged survival times
same,no‐observed‐adverse‐effect level (NOAEL),rat,2 mg/kg body weight/d
same,clastogenicity,"[3]; extended exposure, only at highly cytotoxic dose levels",possesses a clastogenic potential
same,point mutations or primary DNA damage,[3]; presence or absence of metabolic activation,did not induce point mutations or primary DNA damage
same,inhibition of activated sludge activity,[4]; nominal 100 mg MPM/L,no inhibition
same,ready biodegradability result,[4]; nominal 100 mg/L,primary degradation by HPLC without oxygen uptake
same,time to full primary degradation,[5],≤ 7 days
same,dose causing malformations in the pups in the absence of maternal toxicity,"rats [6]; highest dose, oral, rats, ref T. Pfister, unpublished data",4.5 mg/kg body weight/d
same,"NOAEL, female fertility and reproduction study","rats [6]; rat, in vivo, po",1.5 mg/kg body weight/d
same,effect on fertility,"rats [6]; rats, oral, ref T. Pfister, unpublished data",no effect on fertility
same,hydrolysis of prodrug,[7],rapidly and fully hydrolyzed to MPA
same,no‐observed‐effect level (NOEL) for teratogenic changes,rabbits,30 mg/kg body weight/d
same,first ADE (selected as the ADE),humans; from rat 12‐mo NOAEL,0.1 mg MPM/60‐kg person/d
same,second ADE,humans; from rat teratogenicity NOEL,0.19 mg MPM/60‐kg person/d
same,no‐observed‐effect level (NOEL) for teratogenic changes,rats [8],2 mg/kg body weight/d
same,carcinogenicity,mice,not carcinogenic
same,in vitro antitumour effects,[9],in vitro antitumour effects
"COc1c(C)c2c(c(O)c1C/C=C(\C)CCC(=O)O)C(=O)OC2 [^14C‐MPA, Mycophenolic acid, [carboxyl‐14C]]",degradation in activated sludge,[10],> 80%
COc1c(C)c2c(c(O)c1C/C=C(\C)CCC(=O)[O-])C(=O)OC2.[Na+] [sodium‐MPA],acute fish 50% lethal concentration (LC50),Cyprinus carpio,> 100 µg/mL
same,"3‐h EC50, respiration inhibition",[11],2213 µg/mL
same,"EC10, respiration inhibition",[11],69 µg/mL
same,acute daphnid EC50,D. magna,> 100 µg/mL
